System: canola cv. Peace
Test: Greenhouse canola study, foliar auxin spray at green bud stage, with or without heat stress (Tables C1-C4)
Type: in vivo, Brassica napus
Conditions: for % pod set / Seed yield / Total number of flowers / Total number of pods with developing seeds / Total number of racemes / Total number undeveloped pods: heat stress 33° C. 6 h/day, 6 days (Table C2); for % pod set per plant / Seed yield (g) per plant / Total number of flowers per plant / Total number of pods with developing seeds per plant / Total number of racemes per plant / Total number undeveloped pods per plant: non-heat stress (Table C1)
Method: Canola seeds (Brassica napus) from the cultivar Peace were planted at an approximate depth of 1 cm in 5 inch square plastic pots (6 inch pot depth; 4 seeds per pot) in 1:1 Sunshine #4 potting mix (Sun Gro Horticulture, Vancouver, Canada) and sand. The seedlings were thinned to one seedling per pot approximately 2 weeks after seeding. Plants were grown at the University of Alberta in a greenhouse from Nov. 14, 2011 to Mar. 5, 2012. The average temperature was approximately 18° C. day/16° C. night (Nov. 14, 2011 to Feb. 8, 2012) then 21° C. day/19° C. night from Feb. 8 to Mar. 5, 2012. The plants also received supplemental lighting daily (average photon flux density of 250 μE m^−2s^−2) for 16 hours per day (from 6 am to 10 pm).
The auxins, 4-methyl-indole-3-acetic acid (4-ME-IAA) or 4-chloro-indole-3-acetic acid (4-Cl-IAA) at 1×10^−7, 1×10^−6, 1×10^−5, or 1×10^−4M in aqueous 0.1% (v/v) Tween 80 or a control solution (aqueous 0.1% [v/v] Tween 80) were applied one time as a foliar spray to canola plants at the green bud stage (BBCH scale 51; prior to bolting when flower buds are visible from above, but they are tightly clustered and have not extended above smallest leaves surrounding the inflorescence). The experiment was arranged in a completely randomized design in the greenhouse.
The heat stress treatment was imposed by moving plants to receive the heat stress from the greenhouse into a growth chamber for 6 days. The light cycle began at 7:00 hours at a 19° C. air temperature. The heat treatment began at 11:00 hours (33° C. air temperature) and was maintained for 6 hours (until 17:00 hours). Following the heat treatment, the remainder of the light cycle was maintained at a 22° C. air temperature. The dark cycle (began at 23:00 hours) was maintained at 17° C. The photoperiod was 16 h light/8 h dark at an average photon flux density of 492 μE m^−2s^−2 using 54W/835/HO high fluorescent bulbs, Phillips, Holland. This heat treatment cycle was imposed for 6 days. The plants were returned to the greenhouse after the heat stress treatment to develop to maturity.

SMILES: Cc1cccc2[nH]cc(CC(=O)O)c12 [4-ME-IAA, 4-methyl-indole-3-acetic acid]
- leaf epinasty (1×10^−4 M, 24 hours after treatment, milder under heat stress): leaf epinasty was observed
- % pod set (1×10^−4 M): 60 ± 1%
- Seed yield (1×10^−4 M): 6.0 ± 1.0 g
- Total number of flowers (1×10^−4 M): 326 ± 34
- Total number of pods with developing seeds (1×10^−4 M): 196 ± 19
- Total number of racemes (1×10^−4 M): 12 ± 1
- Total number undeveloped pods (1×10^−4 M): 34 ± 10
- % pod set per plant (1×10^−4 M): 57 ± 2%
- Seed yield (g) per plant (1×10^−4 M): 4.9 ± 0.4 g
- Total number of flowers per plant (1×10^−4 M): 261 ± 14
- Total number of pods with developing seeds per plant (1×10^−4 M): 148 ± 9
- Total number of racemes per plant (1×10^−4 M): 11 ± 1
- Total number undeveloped pods per plant (1×10^−4 M): 16 ± 2
- increase in total number of flowers per plant vs control (1×10^−5 M, heat stress): 43%
- increase in total number of racemes per plant vs control (1×10^−5 M, heat stress): 38%
- % pod set (1×10^−5 M): 50 ± 2%
- Seed yield (1×10^−5 M): 5.9 ± 1.2 g
- Total number of flowers (1×10^−5 M): 520 ± 102
- Total number of pods with developing seeds (1×10^−5 M): 259 ± 55
- Total number of racemes (1×10^−5 M): 18 ± 2
- Total number undeveloped pods (1×10^−5 M): 64 ± 13
- % pod set per plant (1×10^−5 M): 62 ± 5%
- Seed yield (g) per plant (1×10^−5 M): 5.7 ± 0.7 g
- Total number of flowers per plant (1×10^−5 M): 265 ± 14
- Total number of pods with developing seeds per plant (1×10^−5 M): 165 ± 18
- Total number of racemes per plant (1×10^−5 M): 10 ± 0
- Total number undeveloped pods per plant (1×10^−5 M): 22 ± 6
- % pod set (1×10^−6 M): 44 ± 7%
- Total number of flowers (1×10^−6 M): 435 ± 89
- Total number of pods with developing seeds (1×10^−6 M): 167 ± 15
- Total number of racemes (1×10^−6 M): 13 ± 2
- Total number undeveloped pods (1×10^−6 M): 71 ± 37
- % pod set per plant (1×10^−6 M): 62 ± 3%
- Total number of flowers per plant (1×10^−6 M): 250 ± 21
- Total number of pods with developing seeds per plant (1×10^−6 M): 155 ± 16
- Total number of racemes per plant (1×10^−6 M): 10 ± 1
- Total number undeveloped pods per plant (1×10^−6 M): 17 ± 5
- % pod set (1×10^−7 M): 52 ± 4%
- Seed yield (1×10^−7 M): 5.4 ± 0.9 g
- Total number of flowers (1×10^−7 M): 418 ± 25
- Total number of pods with developing seeds (1×10^−7 M): 213 ± 6
- Total number of racemes (1×10^−7 M): 14 ± 1
- Total number undeveloped pods (1×10^−7 M): 50 ± 26
- increase in total number of pods with developing seeds per plant vs control (1×10^−7 M, heat stress (6 hours at 33° C. per day for 6 days)): 13%
- increase in seed yield vs control (1×10^−7 M, non-heat stress): 22%
- increase in total number of pods with developing seeds per plant vs control (1×10^−7 M, non-heat stress): 10%
- % pod set per plant (1×10^−7 M): 66 ± 1%
- Seed yield (g) per plant (1×10^−7 M): 5.5 ± 0.4 g
- Total number of flowers per plant (1×10^−7 M): 256 ± 12
- Total number of pods with developing seeds per plant (1×10^−7 M): 170 ± 7
- Total number of racemes per plant (1×10^−7 M): 10 ± 1
- Total number undeveloped pods per plant (1×10^−7 M): 17 ± 3

Source: patent US20140106967A1, “AUXIN PLANT GROWTH REGULATORS” (The Governors of The University of Alberta, priority 2011, published 2014)
